Each compound was assayed against ROMK (Kir1.1) channel (Homo sapiens (Human), UniProt P48048) (assay: Thallium Flux Assay).
Type: cell-based
Description: A Thallium Flux Assay was performed on each of the final product compounds of the Examples. This assay has been described previously; see, e.g., PCT Published Application WO 2013/062900.

Sequence of ROMK (Kir1.1) channel (P48048 whole entry): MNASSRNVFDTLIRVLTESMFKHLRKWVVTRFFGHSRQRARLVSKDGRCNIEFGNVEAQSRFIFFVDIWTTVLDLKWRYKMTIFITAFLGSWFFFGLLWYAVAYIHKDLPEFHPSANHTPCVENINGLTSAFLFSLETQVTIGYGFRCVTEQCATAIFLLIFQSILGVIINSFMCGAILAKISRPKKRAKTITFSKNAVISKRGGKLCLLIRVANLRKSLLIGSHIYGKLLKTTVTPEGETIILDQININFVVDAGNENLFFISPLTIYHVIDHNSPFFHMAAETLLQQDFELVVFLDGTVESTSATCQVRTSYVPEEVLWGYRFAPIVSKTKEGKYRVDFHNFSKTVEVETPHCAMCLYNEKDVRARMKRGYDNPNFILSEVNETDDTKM

First: CC1=C(N2CC[C@]3(CC[C@@H](N(C)[C@H](C)c4ccc(-n5cnnn5)nc4)CC3)C2=O)COC1=O [Example 94]
Second: CC1=C(N2CC[C@]3(CC[C@H](N(C)[C@H](C)c4ccc(-n5cnnn5)nc4)CC3)C2=O)COC1=O [Example 93]
The IC50 of the first is 46-fold lower: 11 nM for the first, 510 nM for the second.

First: CC1=C(N2C(=O)[C@]3(CC[C@@H](NCc4ccc5c(c4)Cn4nnnc4-5)CC3)C[C@H]2C)COC1=O [Example 55, (3R,5s,8S)-8-(((5H-tetrazolo[5,1-a]isoindol-7-yl)methyl)amino)-3-methyl-2-(4-methyl-5-oxo-2,5-dihydrofuran-3-yl)-2-azaspiro[4.5]decan-1-one]
Second: CC1=C(N2C(=O)[C@]3(CC[C@H](NCc4ccc5c(c4)Cn4nnnc4-5)CC3)C[C@H]2C)COC1=O [Example 60, (3R,5r,8R)-8-(((5H-tetrazolo[5,1-a]isoindol-7-yl)methyl)amino)-3-methyl-2-(4-methyl-5-oxo-2,5-dihydrofuran-3-yl)-2-azaspiro[4.5]decan-1-one]
The IC50 of the first is 43-fold lower: 15 nM for the first, 650 nM for the second.

First: C[C@H]1C[C@]2(CC[C@@H](NCc3cnc(-n4cnnn4)cn3)CC2)C(=O)N1C1=CC(=O)OC1 [Example 66, (3S,5r,8S)-8-(((5-(1H-tetrazol-1-yl)pyrazin-2-yl)methyl)amino)-3-methyl-2-(5-oxo-2,5-dihydrofuran-3-yl)-2-azaspiro[4.5]decan-1-one]
Second: CC1C[C@]2(CC[C@@H](NCc3cnc(-n4cnnn4)cn3)CC2)C(=O)N1C1=CC(=O)OC1 (stereo partly shown) [Example 50, (5r,8r)-3-methyl-2-(5-oxo-2,5-dihydrofuran-3-yl)-8-({[5-(1H-tetrazol-1-yl)pyrazin-2-yl]methyl}amino)-2-azaspiro[4.5]decan-1-one]
The IC50 of the first is 5.6-fold lower: 7 nM for the first, 39 nM for the second. The first is the more potent here.

`CC1=C(N2CC[C@]3(CC[C@H](N(C)Cc4ccc(-n5ncnn5)cc4)CC3)C2=O)COC1=O` [Example 111] and `CC1=C(N2CC[C@]3(CC[C@H](N(C)Cc4ccc(-n5ncnn5)nn4)CC3)C2=O)COC1=O` [Example 114] are within 1.5-fold of each other in IC50: 300 nM for the first, 430 nM for the second.

Going from `CC1=C(N2CC[C@]3(CC[C@](C)(NCc4cnc(-n5cnnn5)cn4)CC3)C2=O)COC1=O` [Example 68, (5s,8s)-8-(((5-(1H-tetrazol-1-yl)pyrazin-2-yl)methyl)amino)-8-methyl-2-(4-methyl-5-oxo-2,5-dihydrofuran-3-yl)-2-azaspiro[4.5]decan-1-one] to `CC1=C(N2CC[C@]3(CC[C@@](C)(NCc4cnc(-n5cnnn5)cn4)CC3)C2=O)COC1=O` [Example 69, (5r,8r)-8-(((5-(1H-tetrazol-1-yl)pyrazin-2-yl)methyl)amino)-8-methyl-2-(4-methyl-5-oxo-2,5-dihydrofuran-3-yl)-2-azaspiro[4.5]decan-1-one], the IC50 falls from 140 nM to 15 nM (9.3-fold).

`CC1=C(N2CC[C@]3(CC[C@H](N(CCO)Cc4ccc(-n5cnnn5)nc4)CC3)C2=O)COC1=O` [Example 131, (5s,8s)-8-[(2-hydroxyethyl) {[6-(1H-tetrazol-1-yl)pyridin-3-yl]methyl}amino]-2-(4-methyl-5-oxo-2,5-dihydrofuran-3-yl)-2-azaspiro[4.5]decan-1-one] and `CC1=C(N2CC[C@]3(CC[C@H](N(CC(N)=O)Cc4ccc(-n5cnnn5)nc4)CC3)C2=O)COC1=O` [Example 140] are within 1.5-fold of each other in IC50: 160 nM for the first, 110 nM for the second.

`CC1=C(N2CC[C@]3(CC[C@@](C)(N(C)Cc4ccc(-n5cnnn5)nn4)CC3)C2=O)COC1=O` [Example 116] and `CC1=C(N2CC[C@]3(CC[C@@H](N(C)Cc4ccc(-n5cnnn5)nn4)CC3)C2=O)COC1=O` [Example 80, (5r,8r)-2-(4-methyl-5-oxo-2,5-dihydrofuran-3-yl)-8-(methyl{[6-(1H-tetrazol-1-yl)pyridazin-3-yl]methyl}amino)-2-azaspiro[4.5]decan-1-one] are within 1.5-fold of each other in IC50: 24 nM for the first, 19 nM for the second.

`CC1=C(N2CC[C@]3(CC[C@@H](NCc4ncc(-n5cnnn5)nc4C)CC3)C2=O)COC1=O` [Example 14, (5r,8r)-2-(4-methyl-5-oxo-2,5-dihydrofuran-3-yl)-8-({[3-methyl-5-(1H-tetrazol-1-yl)pyrazin-2-yl]methyl}amino)-2-azaspiro[4.5]decan-1-one] and `CC1=C(N2CC[C@]3(CC[C@@H](N(C)Cc4ncc(-n5cnnn5)nc4C)CC3)C2=O)COC1=O` [Example 125] are within 1.5-fold of each other in IC50: 30 nM for the first, 22 nM for the second.

First: C[C@@H]1C[C@]2(CC[C@H](NCc3ccc(-n4cnnn4)nc3)CC2)C(=O)N1C1=CC(=O)OC1 [Example 27, (3R,5s,8S)-3-methyl-2-(5-oxo-2,5-dihydrofuran-3-yl)-8-({[6-(1H-tetrazol-1-yl)pyridin-3-yl]methyl}amino)-2-azaspiro[4.5]decan-1-one]
Second: C[C@H]1C[C@]2(CC[C@H](NCc3cnc(-n4cnnn4)cn3)CC2)C(=O)N1C1=CC(=O)OC1 [Example 28, (3S,5s,8R)-3-methyl-2-(5-oxo-2,5-dihydrofuran-3-yl)-8-({[5-(1H-tetrazol-1-yl)pyrazin-2-yl]methyl}amino)-2-azaspiro[4.5]decan-1-one]
The IC50 of the first is 6.6-fold lower: 38 nM for the first, 250 nM for the second. The first is the more potent here.

Going from `CC1=C(N2CC[C@]3(CC[C@H](NCc4ccc(-n5cnnn5)cn4)CC3)C2=O)COC1=O` [Example 7A, (5s,8s)-2-(4-methyl-5-oxo-2,5-dihydrofuran-3-yl)-8-({[5-(1H-tetrazol-1-yl)pyridin-2-yl]methyl}amino)-2-azaspiro[4.5]decan-1-one] to `CC1=C(N2CC[C@]3(CC[C@@H](NCc4ccc(-n5cnnn5)cn4)CC3)C2=O)COC1=O` [Example 7B, (5r,8r)-2-(4-methyl-5-oxo-2,5-dihydrofuran-3-yl)-8-({[5-(1H-tetrazol-1-yl)pyridin-2-yl]methyl}amino)-2-azaspiro[4.5]decan-1-one], the IC50 rises from 24 nM to 710 nM (30-fold). The first is the more potent here.

Compared with `CC1=C(N2CC[C@]3(CC[C@H](N(C)[C@H](CO)c4ccc(-n5cnnn5)nc4)CC3)C2=O)COC1=O` [Example 85], `CC1=C(N2CC[C@]3(CC[C@@H](N(C)[C@@H](C)c4ccc(-n5cnnn5)nc4)CC3)C2=O)COC1=O` [Example 95] is 7.9-fold lower in IC50: 190 nM for the first, 24 nM for the second.

Compared with `CC1=C(N2CC[C@]3(CC[C@@H](N[C@H](C)c4ccc5c(c4)CCc4nnnn4-5)CC3)C2=O)COC1=O` [Example 18, (5R,8r)-8-{[(1R)-1-(4,5-dihydrotetrazolo[1,5-a]quinolin-7-yl)ethyl]amino}-2-(4-methyl-5-oxo-2,5-dihydrofuran-3-yl)-2-azaspiro[4.5]decan-1-one], `CC1=C(N2CC[C@]3(CC[C@@H](NCc4ccc5c(c4)Cn4nnnc4-5)CC3)C2=O)COC1=O` [Example 11, (5r,8r)-2-(4-methyl-5-oxo-2,5-dihydrofuran-3-yl)-8-[(5H-tetrazolo[5,1-a]isoindol-7-ylmethyl)amino]-2-azaspiro[4.5]decan-1-one] is 3-fold lower in IC50: 330 nM for the first, 110 nM for the second. The second is the more potent here.

Going from `CC1=C(N2CC[C@]3(CC[C@H](NCc4ccc(-n5cnnn5)cc4)CC3)C2=O)COC1=O` [Example 43, (5s,8s)-2-(4-methyl-5-oxo-2,5-dihydrofuran-3-yl)-8-{[4-(1H-tetrazol-1-yl)benzyl]amino}-2-azaspiro[4.5]decan-1-one] to `CC1=C(N2CC[C@]3(CC[C@@H](NCc4ccc(-n5cnnn5)cc4)CC3)C2=O)COC1=O` [Example 44, (5r,8r)-2-(4-methyl-5-oxo-2,5-dihydrofuran-3-yl)-8-{[4-(1H-tetrazol-1-yl)benzyl]amino}-2-azaspiro[4.5]decan-1-one], the IC50 falls from 49 nM to 3.1 nM (16-fold).

Going from `CC1=C(N2CC[C@]3(CC[C@@H](NCc4ccc5c(c4C)Cn4nnnc4-5)CC3)C2=O)COC1=O` [Example 54, (5r,8r)-2-(4-methyl-5-oxo-2,5-dihydrofuran-3-yl)-8-(((6-methyl-5H-tetrazolo[5,1-a]isoindol-7-yl)methyl)amino)-2-azaspiro[4.5]decan-1-one] to `CC1=C(N2CC[C@]3(CC[C@@H](NCc4cnc5c(c4)Cn4nnnc4-5)CC3)C2=O)COC1=O` [Example 52, (5r,8r)-8-(((8H-tetrazolo[1′,5′:1,2]pyrrolo[3,4-b]pyridin-6-yl)methyl)amino)-2-(4-methyl-5-oxo-2,5-dihydrofuran-3-yl)-2-azaspiro[4.5]decan-1-one], the IC50 rises from 32 nM to 160 nM (5-fold). The first is the more potent here.

`CC1=C(N2CC[C@]3(CC[C@@H](NCc4ccc(-n5cnnn5)nn4)CC3)C2=O)COC1=O` [Example 1, (5r,8r)-2-(4-methyl-5-oxo-2,5-dihydrofuran-3-yl)-8-({[6-(1H-tetrazol-1-yl)pyridazin-3-yl]methyl}amino)-2-azaspiro[4.5]decan-1-one] and `CC1=C(N2CC[C@]3(CC[C@@H](N(C)Cc4ccc(-n5cnnn5)cn4)CC3)C2=O)COC1=O` [Example 88] are within 1.5-fold of each other in IC50: 10 nM for the first, 7 nM for the second.

`CC1=C(N2CC[C@]3(CC[C@@H](N(CC(N)=O)Cc4ccc(-n5cnnn5)nc4)CC3)C2=O)COC1=O` [Example 141] and `CCN(Cc1ccc2c(c1C)COC2=O)C1CCC2(CC1)CCN(C1=C(C)C(=O)OC1)C2=O` (stereo not shown) [Example 142] are within 1.5-fold of each other in IC50: 680 nM for the first, 490 nM for the second.

First: CC1=C(N2CC[C@]3(CC[C@@H](N(C)Cc4cc5c(cc4C)-c4nnnn4C5)CC3)C2=O)COC1=O [Example 122]
Second: CC1=C(N2CC[C@]3(CC[C@H](N(C)CCc4ccc5c(c4)COC5=O)CC3)C2=O)COC1=O [Example 105]
The IC50 of the first is 5.8-fold lower: 26 nM for the first, 150 nM for the second. The first is the more potent here.

Going from `O=C1C=C(N2CC[C@]3(CC[C@@H](NCc4cnc(-n5cnnn5)cn4)CC3)C2=O)CO1` [Example 72, (5r,8r)-8-(((5-(1H-tetrazol-1-yl)pyrazin-2-yl)methyl)amino)-2-(5-oxo-2,5-dihydrofuran-3-yl)-2-azaspiro[4.5]decan-1-one] to `C[C@@H]1C[C@]2(CC[C@H](NCc3cnc(-n4cnnn4)cn3)CC2)C(=O)N1C1=CC(=O)OC1` [Example 26, (3R,5s,8S)-3-methyl-2-(5-oxo-2,5-dihydrofuran-3-yl)-8-({[5-(1H-tetrazol-1-yl)pyrazin-2-yl]methyl}amino)-2-azaspiro[4.5]decan-1-one], the IC50 falls from 340 nM to 190 nM (1.8-fold). The second is the more potent here.

Compound `CCCN(C[C@H](O)c1ccc2c(c1C)COC2=O)C1CCC2(CC1)CCN(C1=C(C)C(=O)OC1)C2=O` (stereo partly drawn) [Example 132, 8-{[(2R)-2-hydroxy-2-(4-methyl-1-oxo-1,3-dihydro-2-benzofuran-5-yl)ethyl](propyl)amino}-2-(4-methyl-5-oxo-2,5-dihydrofuran-3-yl)-2-azaspiro[4.5]decan-1-one] has an IC50 of 100 nM.

Reference: patent US9718808B2, “Inhibitors of the renal outer medullary potassium channel” (Merck Sharp & Dohme Corp., priority 2014, dated 2017)
